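Growth conditions: 96-well plates. Treatment: test compound, 48 hours, 5 concentrations. Analysis: linear interpolation between bracketing concentrations; unreached endpoints set to highest concentration. GI50 is the concentration that inhibits growth by half.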 Calls of active or inactive are those of the source. Cut-off read from the data, not from the text of the source: active = GI50 up to about 1.1 µM and inactive = higher.
How the values were obtained:
Experiment in all cases: inhibition of tumour cell growth, NCI panel, 48 h
MDA-MB-435 = tested on: MDA-MB-435
BT-549 = tested on: BT-549
SW-620 = tested on: SW-620
PC-3 = tested on: PC-3
IGROV-1 = tested on: IGROV-1
MDA-MB-231 = tested on: MDA-MB-231
NCI-H522 = tested on: NCI-H522
NCI-H460 = tested on: NCI-H460
HT-29 = tested on: HT-29
HOP-62 = tested on: HOP-62
OVCAR-5 = tested on: OVCAR-5
UO-31 = tested on: UO-31
CAKI-1 = tested on: CAKI-1
CCRF-CEM = tested on: CCRF-CEM
HOP-92 = tested on: HOP-92
HL-60 = tested on: HL-60
COLO 205 = tested on: COLO 205
DU-145 = tested on: DU-145
MCF7 = tested on: MCF7
SF-539 = tested on: SF-539

Measured: GI50

Cc1cc(C)nc(NS(=O)(=O)c2ccc(Nc3c4ccccc4nc4c(C(=O)NC(CO)(CO)CO)cccc34)cc2)n1
inactive: MDA-MB-435 24.9 µM | BT-549 21.8 µM | SW-620 38.5 µM | PC-3 35.6 µM | IGROV-1 40.1 µM | MDA-MB-231 32.1 µM | NCI-H522 13.9 µM | NCI-H460 15.8 µM | HT-29 28.1 µM | HOP-62 26.7 µM | OVCAR-5 31.5 µM | UO-31 85.1 µM | CAKI-1 89.3 µM | CCRF-CEM 16.1 µM | HOP-92 23.6 µM | HL-60 31.6 µM | COLO 205 20.1 µM | DU-145 55 µM | MCF7 25.8 µM

C[N+]1(CCC(=O)c2ccco2)CC2CCC(CC2)C1 (stereo unspecified)
inactive: MDA-MB-435 > 100 µM | BT-549 > 100 µM | SW-620 > 100 µM | PC-3 > 100 µM | IGROV-1 > 100 µM | MDA-MB-231 > 100 µM | SF-539 > 100 µM | NCI-H522 > 100 µM | NCI-H460 > 100 µM | HT-29 > 100 µM | OVCAR-5 > 100 µM | UO-31 > 100 µM | CAKI-1 > 100 µM | HOP-92 > 100 µM | COLO 205 > 100 µM | DU-145 > 100 µM | MCF7 > 100 µM

CCN(C(=O)N[C@@H](CC(C)C)C(=O)NCC(=O)OC)c1ccccc1
inactive: MDA-MB-435 > 100 µM | BT-549 > 100 µM | SW-620 > 100 µM | PC-3 > 100 µM | IGROV-1 > 100 µM | MDA-MB-231 > 100 µM | SF-539 41 µM | NCI-H522 > 100 µM | NCI-H460 85.7 µM | HT-29 > 100 µM | HOP-62 > 100 µM | OVCAR-5 > 100 µM | UO-31 > 100 µM | CAKI-1 > 100 µM | CCRF-CEM > 100 µM | HOP-92 > 100 µM | COLO 205 > 100 µM | DU-145 > 100 µM | MCF7 > 100 µM

COc1ccc(C(=C2C(=O)OC(=O)C2=C(C)C)c2ccc(OC)cc2)cc1
inactive: MDA-MB-435 > 100 µM | BT-549 70.5 µM | SW-620 > 100 µM | PC-3 60.4 µM | IGROV-1 54 µM | MDA-MB-231 > 100 µM | SF-539 > 100 µM | NCI-H522 23.2 µM | NCI-H460 > 100 µM | HT-29 48 µM | HOP-62 45.8 µM | OVCAR-5 79.1 µM | UO-31 > 100 µM | CAKI-1 > 100 µM | HOP-92 > 100 µM | HL-60 31.2 µM | COLO 205 > 100 µM | DU-145 > 100 µM | MCF7 > 100 µM

OC1(C(F)(F)F)OCCN=C1C(F)(F)F (stereo unspecified)
inactive: MDA-MB-435 > 100 µM | BT-549 56.2 µM | SW-620 56.2 µM | PC-3 > 100 µM | IGROV-1 99.3 µM | MDA-MB-231 > 100 µM | NCI-H522 40.4 µM | NCI-H460 > 100 µM | HT-29 > 100 µM | HOP-62 > 100 µM | OVCAR-5 > 100 µM | UO-31 > 100 µM | CAKI-1 52.2 µM | CCRF-CEM 46.8 µM | HOP-92 60.5 µM | HL-60 37.7 µM | COLO 205 > 100 µM | DU-145 41.1 µM | MCF7 > 100 µM

O=CN(O)CC(=O)O
inactive: MDA-MB-435 > 100 µM | BT-549 > 100 µM | SW-620 > 100 µM | PC-3 > 100 µM | IGROV-1 > 100 µM | MDA-MB-231 > 100 µM | SF-539 > 100 µM | NCI-H460 > 100 µM | HT-29 > 100 µM | HOP-62 > 100 µM | OVCAR-5 > 100 µM | UO-31 > 100 µM | CCRF-CEM > 100 µM | HOP-92 > 100 µM | HL-60 > 100 µM | COLO 205 > 100 µM | DU-145 > 100 µM | MCF7 > 100 µM
